26 compounds from patent publication US20030134859A1 (SANKYO COMPANY, LIMITED, priority 2000, published 2003) can be followed below.

Where a name gives a salt, the structure may show the parent alone.

The experiment addresses T1, human PPAR γ 2 (Homo sapiens, UniProt P37231).
T1 construct: expressed in transfected cells; host or cells: human osteosarcoma MG63, transiently co-transfected with pSG5-hPPARg and the reporter pGV-P2-PPRE
T1 sequence (P37231 1-505): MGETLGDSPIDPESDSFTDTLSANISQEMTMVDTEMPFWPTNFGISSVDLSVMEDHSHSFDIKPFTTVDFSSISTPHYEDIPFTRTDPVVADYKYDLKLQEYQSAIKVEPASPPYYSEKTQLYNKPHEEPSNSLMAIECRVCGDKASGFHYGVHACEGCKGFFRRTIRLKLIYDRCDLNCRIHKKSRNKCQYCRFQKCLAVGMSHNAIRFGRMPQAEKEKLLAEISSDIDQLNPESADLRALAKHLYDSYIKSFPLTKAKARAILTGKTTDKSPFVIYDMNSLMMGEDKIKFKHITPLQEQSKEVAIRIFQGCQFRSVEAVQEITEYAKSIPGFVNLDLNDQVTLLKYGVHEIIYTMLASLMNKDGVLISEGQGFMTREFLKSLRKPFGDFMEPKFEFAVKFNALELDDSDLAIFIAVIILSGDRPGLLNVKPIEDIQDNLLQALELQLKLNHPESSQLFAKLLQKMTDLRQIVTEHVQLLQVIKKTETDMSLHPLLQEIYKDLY
The experiment in a line: Inhibitory activity against PPAR γ transcription in the presence of agonist compound A, luciferase reporter. The format is cell-based. The settings on record: in the presence of 10 nM compound A (agonist); MG63 cells transfected with pSG5-hPPARg and pGV-P2-PPRE; 24 hr. Background: A reporter such as luciferase makes a cellular process visible.
A word on the IC50: it is the midpoint of a concentration-inhibition curve. With `Cc1ccc2nc(-c3ccc(NC(=O)c4cc([N+](=O)[O-])ccc4Cl)cc3)sc2c1` [Example 10, N-[4-(6-Methylbenzothiazol-2-yl)phenyl]-(2-chloro-5-nitrophenyl)carboxamide], the IC50 stood at 71 nM.
For the compound `N#Cc1ccc(NC(=O)c2cc([N+](=O)[O-])ccc2Cl)cc1` [Example 20, N-(4-Cyanophenyl)-(2-chloro-5-nitrophenyl)carboxamide], the IC50 was determined as 15 nM.
With `Cc1cccc(-c2csc(NC(=O)c3cc([N+](=O)[O-])ccc3Cl)n2)c1` [Example 40, N-[4-(3-Methylphenyl)thiazol-2-yl)-(2-chloro-5-nitrophenyl)carboxamide], the IC50 was 57 nM.
For `CCc1ccc(-c2csc(NC(=O)c3cc([N+](=O)[O-])ccc3Cl)n2)cc1` [Example 44, N-[4-(4-Ethylphenyl)thiazol-2-yl]-(2-chloro-5-nitrophenyl)carboxamide], the half-maximal inhibitory concentration (IC50) worked out at 84 nM.
With `O=C(Nc1cccnc1)c1cc([N+](=O)[O-])ccc1Cl` [Example 50, N-(3-Pyridyl)-(2-chloro-5-nitrophenyl)carboxamide], the concentration for half-maximal inhibition (IC50) worked out at 110 nM.
In the case of `Cc1ccnc(NC(=O)c2cc([N+](=O)[O-])ccc2Cl)n1` [Example 65, N-(4-Methylpyrimidin-2-yl)-(2-chloro-5-nitrophenyl)carboxamide], the half-maximal inhibitory concentration (IC50) was determined as 37 nM.
As for `Cc1cc(Cl)nc(NC(=O)c2cc([N+](=O)[O-])ccc2Cl)n1` [Example 78, N-(4-Chloro-6-methylpyrimidin-2-yl)-(2-chloro-5-nitrophenyl)carboxamide], the figure is 84 nM; as for `CC(C)(C)OC(=O)Nc1ccc(-c2ccc(NC(=O)c3cc([N+](=O)[O-])ccc3Cl)cc2)cc1` [Example 87, N-[4-[4-(tert-Butoxycarbonylamino)phenyl]phenyl]-(2-chloro-5-nitrophenyl)carboxamide], 33 nM.
Take `CCCCCCNc1ccc(-c2ccc(NC(=O)c3cc([N+](=O)[O-])ccc3Cl)cc2)cc1` [Example 195, N-[4-[4-(N-Hexylamino)phenyl]phenyl]-(2-chloro-5-nitrophenyl)carboxamide]: the IC50 is 18 nM.
On to `CCCCCCN(C)c1ccc(-c2ccc(NC(=O)c3cc([N+](=O)[O-])ccc3Cl)cc2)cc1` [Example 196, N-[4-[4-(N-Hexyl-N-methylamino)phenyl]phenyl]-(2-chloro-5-nitrophenyl)carboxamide], for which the IC50 is 990 nM.
As for `CCCCCCN(CC)c1ccc(-c2ccc(NC(=O)c3cc([N+](=O)[O-])ccc3Cl)cc2)cc1` [Example 197, N-[4-[4-(N-Ethyl-N-hexylamino)phenyl]phenyl]-(2-chloro-5-nitrophenyl)carboxamide], the figure is 280 nM; as for `CCCCCCCCNc1ccc(-c2ccc(NC(=O)c3cc([N+](=O)[O-])ccc3Cl)cc2)cc1` [Example 219, N-[4-[4-(N-Octylamino)phenyl]phenyl]-(2-chloro-5-nitrophenyl)carboxamide], 8.3 nM; as for `CCCCCCCCN(CCCCCC)c1ccc(-c2ccc(NC(=O)c3cc([N+](=O)[O-])ccc3Cl)cc2)cc1` [Example 220, N-[4-[4-(N-Hexyl-N-octylamino)phenyl]phenyl]-(2-chloro-5-nitrophenyl)carboxamide mono-hydrochloride], 18 nM.
`CCCCCCCCN(CCCC)c1ccc(-c2ccc(NC(=O)c3cc([N+](=O)[O-])ccc3Cl)cc2)cc1` [Example 222, N-[4-[4-(N-Butyl-N-octylamino)phenyl]phenyl]-(2-chloro-5-nitrophenyl)carboxamide]: the half-maximal inhibitory concentration (IC50) was 160 nM.
As for `CCCCCCCCN(CCCC)c1ccc(-c2ccc(NC(=O)c3cc([N+](=O)[O-])ccc3Cl)cc2)cc1.Cl` [Example 223, N-[4-[4-(N-Butyl-N-octylamino)phenyl]phenyl]-(2-chloro-5-nitrophenyl)carboxamide mono-hydrochloride], the figure is 89 nM; as for `CCCCCCCCN(CCC)c1ccc(-c2ccc(NC(=O)c3cc([N+](=O)[O-])ccc3Cl)cc2)cc1` [Example 224, N-[4-[4-(N-Octyl-N-propylamino)phenyl]phenyl]-(2-chloro-5-nitrophenyl)carboxamide], 79 nM; as for `CCCCCCCCN(CC)c1ccc(-c2ccc(NC(=O)c3cc([N+](=O)[O-])ccc3Cl)cc2)cc1` [Example 225, N-[4-[4-(N-Ethyl-N-octylamino)phenyl]phenyl]-(2-chloro-5-nitrophenyl)carboxamide], 190 nM.
For the compound `O=C(Nc1ccc(N2CCN(C(=O)c3ccncc3)CC2)cc1)c1cc([N+](=O)[O-])ccc1Cl` [Example 228, N-[4-[4-(Pyridin-4-ylcarbonyl)piperazin-1-yl]phenyl]-(2-chloro-5-nitrophenyl)carboxamide], the concentration for half-maximal inhibition (IC50) came to 130 nM.
On to `O=C(Nc1ccc(CCO)cc1)c1cc([N+](=O)[O-])ccc1Cl` [Example 230, N-[4-(2-Hydroxyethyl)phenyl]-(2-chloro-5-nitrophenyl)carboxamide], for which the 50% inhibitory concentration (IC50) came to 19 nM.
Take `O=C(Nc1ccc(-n2ccnc2)cc1)c1cccc(NC(=O)c2cc([N+](=O)[O-])ccc2Cl)c1` [Example 231, N-[[3-[4-(Imidazol-1-yl)phenyl]aminocarbonyl]phenyl]-(2-chloro-5-nitrophenyl)carboxamide]: the IC50 amounted to 60 nM.
The same measure for `Nc1nc(-c2cccc(NC(=O)c3cc([N+](=O)[O-])ccc3Cl)c2)cs1` [Example 233, N-[3-(2-Amiothiazol-4-yl)phenyl]-(2-chloro-5-nitrophenyl)carboxamide]: 28 nM; for `CC(C)(C)OC(=O)Nc1cccc(-c2csc(NC(=O)c3cc([N+](=O)[O-])ccc3Cl)n2)c1` [Example 234, N-[4-(3-tert-Butoxycarbonylaminophenyl)thiazol-2-yl]-(2-chloro-5-nitrophenyl)carboxamide]: 19 nM.
For the compound `CS(=O)(=O)N(c1ccc(-c2ccc(NC(=O)c3cc([N+](=O)[O-])ccc3Cl)cc2)cc1)S(C)(=O)=O` [Example 235, N-[4-[4-(N,N-Dimethanesulfonylamino)phenyl]phenyl]-(2-chloro-5-nitrophenyl)carboxamide], the IC50 is 19 nM.
`O=C(Nc1ccc(-c2ccc(NC(=S)Nc3ccncc3)cc2)cc1)c1cc([N+](=O)[O-])ccc1Cl` [Example 258, N-[4-[4-[(Pyridin-4-yl)aminothiocarbonylamino]phenyl]phenyl]-(2-chloro-5-nitrophenyl)carboxamide]: the IC50 is 25 nM.
The same measure for `NCCc1ccc(NC(=O)c2cc([N+](=O)[O-])ccc2Cl)cc1` [Example 267, N-[4-(2-Aminoethyl)phenyl]-(2-chloro-5-nitrophenyl)carboxamide]: 60 nM; for `O=C(Nc1ccc(CCNC(=S)Nc2cccnc2)cc1)c1cc([N+](=O)[O-])ccc1Cl` [Example 273, N-[4-[2-(Pyridin-3-yl)aminothiocarbonylaminoethyl]phenyl]-(2-chloro-5-nitrophenyl)carboxamide]: 13 nM.
